# In patent US20080194608A1, “6-Phenylhex-5-Enoic Acid Derivatives, Process for the Preparation Thereof, Pharmaceutical Compositions Comprising Them, and Therapeutic Uses Thereof” (priority 2005, published 2008):
# Target: T1, chimeric protein PPARγ-Gal4 (Homo sapiens, UniProt P37231)
# T1 construct: expressed in transfected cells; host or cells: CV-1 cells (monkey kidney cells)
# T1 sequence (P37231 238-503 limits assumed): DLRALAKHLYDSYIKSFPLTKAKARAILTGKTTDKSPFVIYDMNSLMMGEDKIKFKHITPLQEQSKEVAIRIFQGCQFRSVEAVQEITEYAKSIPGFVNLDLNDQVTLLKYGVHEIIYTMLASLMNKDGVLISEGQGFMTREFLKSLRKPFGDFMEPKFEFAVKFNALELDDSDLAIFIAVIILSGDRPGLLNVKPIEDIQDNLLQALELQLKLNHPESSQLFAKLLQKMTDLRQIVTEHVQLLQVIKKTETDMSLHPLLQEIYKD
# Assay: PPARγ-Gal4 transactivation (luciferase reporter) test in CV-1 cells
# Format: cell-based
# Method: The measurement of the PPAR activation was performed according to a technique described by Lehmann et al. (J. Biol. Chem., 270, (1995), 12953-12956).
# CV-1 cells (monkey kidney cells) are cotransfected with an expression vector for the chimeric protein PPARγ-Gal4 and with a “reporter” plasmid that allows expression of the luciferase gene placed under the control of a promoter comprising Gal4 response elements.
# The cells are seeded in 96-well microplates and cotransfected using a commercial reagent with the reporter plasmid (pG5-tk-pGL3) and the expression vector for the chimeric protein (PPARγ-Gal4). After incubation for 4 hours, whole culture medium (comprising 10% foetal calf serum) is added to the wells. After 24 hours, the medium is removed and replaced with whole medium comprising the test products. The products are left in contact with the cells for 18 hours. The cells are then lysed and the luciferase activity is measured using a luminometer. A PPARγ activation factor can then be calculated by means of the activation of the expression of the reporter gene induced by the product (relative to the control cells that have received no product).
# In the absence of the PPARγ ligand binding domain (vector expressing Gal4 alone), the luciferase activity measured in the presence of an agonist is zero.
# The following transactivation result was obtained with a concentration of 10 μM on PPARγ.
# The transactivation test using the expression of a chimeric protein Gal-4-PPARγ makes it possible to determine also whether an agonist functions as a “full” agonist or as a “partial” agonist in this system.
# An agonist is “partial” in this system if it induces a weaker response, i.e. it has lower efficacy, than rosiglitazone, which is a “full” agonist. In concrete terms, in our system, the transactivation obtained at the plateau with a partial agonist will be between 20% and 50% of the maximum response (efficacy) at the plateau of rosiglitazone.
SMILES,"Activation factor of the chimeric protein PPARγ-Gal4 (10 μM, CV-1 cells (monkey kidney cells), 18 hours contact, relative to control cells without agonist (=1))","Concentration to reach the maximum stimulation of the PPARγ chimeric protein (CV-1 cells, Gal-4-PPARγ transactivation test) [µM]","Emax (transactivation at the plateau relative to maximum response (efficacy) of rosiglitazone, CV-1 cells, read-out: Maximum stimulation of the PPARγ chimeric protein obtained with rosiglitazone) [%]"
"COc1ccccc1OC(CCC=Cc1cc(F)ccc1OCCc1nc(-c2ccccc2)oc1C)C(=O)O (stereo not drawn) [Example 44, 6-{5-fluoro-2-[2-(5-methyl-2-phenyloxazol-4-yl)ethoxy]phenyl}-2-(2-methoxyphenoxy)hex-5-enoic acid]",5.8,,
"CCc1ccc(CCOc2ccc(F)cc2C=CCCC(Oc2ccc(C(F)(F)F)cc2)C(=O)O)nc1 (stereo not drawn) [Example 51, 6-{2-[2-(5-ethylpyridin-2-yl)ethoxy]-5-fluorophenyl)-2-(4-trifluoromethyl-phenoxy)hex-5-enoic acid]",,10,19
